The values below are quoted from earlier work in US11517526B2, “Stabilised hypochlorous solutions and their medical cosmetic uses” (Clinical Health Technologies Ltd, priority 2019, dated 2022).

Usually half-life stands for how long it takes for the measured level to halve.

The conditions of data set [1]: natural state, unless stabilised.
For data set [2], the system named is microbes.

Turning to `OCl` [hypochlorous acid (HOCl), hypochlorous acid], in data set [1], the half-life is 48 h. Besides, the “effectiveness as an antimicrobial relative to hypochlorite (OCl−)” value in data set [2] is 80-100 times.
